Among the data in patent US10183944B2 (Asana Biosciences, LLC, priority 2011, dated 2019) are IC50, inhibition and EC50 values, retold here.

The target of test [1] is Syk (356-635 amino acids) catalytic domain (Homo sapiens (Human), UniProt P43405). The experiment in a line: Inhibition of enzymatic Syk kinase activity (radiometric). It counts as biochemical. The note with it: read-out: IC50 Syk. An outline of the steps: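 Human Syk (356-635) kinase domain (0.035–7.5 ng/reaction) preincubated with compound 30 minutes at room temperature, then reacted with pG4T substrate, 100 μM ATP (stock) and γ-32P-ATP for 10 minutes at 30° C. Reaction stopped with HCl/ATP, spotted on P81 paper, washed and counted by scintillation. Percent inhibition versus no-compound counts.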

A further test concerns RBL2H3 cells. Nature of the test: Degranulation assay: β-hexosaminidase release during immune complex mediated degranulation. It counts as cell-based, rat. The note with it: Rattus norvegicus, RBL-2H3, Assay Protocol B (96 well format); for inhibition at 1 µM: read-out: Degranulation % inhibition at 1 μM; for pEC50: read-out: Degranulation EC50. Summed up: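 RBL2H3 cells sensitized overnight (or 24 h) with anti-DNP rat IgE, pretreated 15 min with compounds in 0.5% DMSO, then challenged with DNP-BSA for 45–60 min. β-Hexosaminidase in supernatant read fluorometrically (Ex 355/Em 460 nm) with β-NAG substrate, 30 min RT; % release/inhibition calculated.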

The target in a further test is JAK2 (Homo sapiens (Human), UniProt O60674). Nature of the test: Inhibition of enzymatic JAK2 kinase activity (TR-FRET). The note with it: read-out: IC50 JAK. It counts as biochemical. An outline of the steps: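 Enzyme preincubated with compound 30 min at RT, then Ulight-poly-GT substrate and ATP added for 60 min at RT. EDTA stop, Eu-antiphosphotyrosine antibody; TR-FRET ratio 665/615 nm (ex 340 nm), blank-corrected; % inhibition versus positive control.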
Background: Time-resolved FRET reads energy transfer from a long-lived donor to a nearby acceptor.

pEC50, pIC50: −log10 of the molar value. Structures can show the parent of a compound that is named as a salt.

What is called pIC50 is −log10 of the IC50, conventionally taken in molar units. The term inhibition denotes the relative decrease from the control value, in per cent. As a reminder, the pEC50 is the EC50 on a negative log10 scale, so that one unit is a factor of ten.

Sequence of JAK2 (O60674 808-1132): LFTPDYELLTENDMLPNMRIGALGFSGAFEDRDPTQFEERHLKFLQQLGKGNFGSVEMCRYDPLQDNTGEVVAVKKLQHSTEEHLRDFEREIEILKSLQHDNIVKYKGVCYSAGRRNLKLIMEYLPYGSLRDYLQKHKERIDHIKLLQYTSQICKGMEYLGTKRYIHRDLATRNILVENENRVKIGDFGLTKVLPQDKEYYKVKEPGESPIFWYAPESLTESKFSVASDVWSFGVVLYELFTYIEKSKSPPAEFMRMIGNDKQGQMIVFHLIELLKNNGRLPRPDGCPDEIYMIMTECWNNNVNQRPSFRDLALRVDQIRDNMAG

In the case of `CN1CCN(CCOc2ccc(Nc3nc(N4CCCCCC4)nc4cn[nH]c(=O)c34)cc2)CC1` [Example 95, 2-(azepan-1-yl)-4-((4-(2-(4-methylpiperazin-1-yl)ethoxy)phenyl)amino)pyrimido[4,5-d]pyridazin-5(6H)-one], the pIC50 (in test [1]; on JAK2) was above 7.30 each time. Besides, the inhibition at 1 µM with RBL2H3 cells is 35%.

On to `O=C(O)CC1CCN(CCOc2ccc(Nc3nc(N4CCCCCC4)nc4cn[nH]c(=O)c34)cc2)CC1` [Example 96, 2-(1-(2-(4-((2-(azepan-1-yl)-5-oxo-5,6-dihydropyrimido[4,5-d]pyridazin-4-yl)amino)phenoxy)ethyl)piperidin-4-yl) acetic acid], for which the pIC50 in test [1] was above 8.00. Besides, in the test with RBL2H3 cells, the inhibition at 1 µM is 85% and the pEC50 is 6.55. Also, on JAK2, the negative logarithm of the IC50 (pIC50) is above 8.00.

In the case of `O=C(O)C1CCN(CCOc2ccc(Nc3nc(N4CCCCCC4)nc4cn[nH]c(=O)c34)cc2)CC1` [Example 98, 1-(2-(4-((2-(azepan-1-yl)-5-oxo-5,6-dihydropyrimido[4,5-d]pyridazin-4-yl)amino)phenoxy)ethyl)piperidine-4-carboxylic acid], the pIC50 (in test [1]; on JAK2) was above 7.30 throughout. Moreover, in the test with RBL2H3 cells, the inhibition at 1 µM was determined as 62%. For the same molecule, the pEC50 in the test on RBL2H3 cells was 6.23.

For `NC(=O)CC1CCN(c2ccc(Nc3nc(N4CCCCCC4)nc4cn[nH]c(=O)c34)cn2)CC1` [Example 99, 2-(1-(5-((2-(azepan-1-yl)-5-oxo-5,6-dihydropyrimido[4,5-d]pyridazin-4-yl)amino)pyridin-2-yl)piperidin-4-yl) acetamide], the pIC50 in test [1] is above 8.00. In the test with RBL2H3 cells, the inhibition at 1 µM is 94% and the pEC50 was 7.36. The pIC50 on JAK2 was above 7.30.

For the molecule `O=C(c1ccc(Nc2nc(N3CCCCCC3)nc3cn[nH]c(=O)c23)cc1)N1CCNCC1` [Example 104, 2-(azepan-1-yl)-4-((4-(piperazine-1-carbonyl)phenyl)amino)pyrimido[4,5-d]pyridazin-5(6H)-one hydrochloride], the pIC50 in test [1] was above 7.30. For the same molecule, in the test with RBL2H3 cells, the inhibition at 1 µM is 100% and the pEC50 was 6.96. The pIC50 at JAK2 was above 8.00.

Take `O=c1[nH]ncc2nc(N3CCCCCC3)nc(Nc3ccc(OCCN4CCNCC4)cc3)c12` [Example 107, 2-(azepan-1-yl)-4-((4-(2-(piperazin-1-yl)ethoxy)phenyl)amino)pyrimido[4,5-d]pyridazin-5(6H)-one]: in test [1], the pIC50 was above 8.00. Moreover, in the test on RBL2H3 cells, the inhibition at 1 µM amounted to 91% and the pEC50 was 7.03. Also, the pIC50 on JAK2 is above 7.30.

In the case of `N#CCC1CCN(c2nc(Nc3ccc(N4CCC(CC(=O)O)CC4)nc3)c3c(=O)[nH]ncc3n2)CC1` [Example 116, 2-(1-(5-((2-(4-(cyanomethyl)piperidin-1-yl)-5-oxo-5,6-dihydropyrimido[4,5-d]pyridazin-4-yl)amino)pyridin-2-yl)piperidin-4-yl)acetic acid], the pIC50 (in test [1]; at JAK2) was above 7.30 each time. In addition, the inhibition at 1 µM in the test with RBL2H3 cells amounted to 65%. Moreover, the negative logarithm of the EC50 (pEC50) in the test with RBL2H3 cells is 6.56.

Consider `O=C(CC1CCN(c2ccc(Nc3nc(N4CCCCCC4)nc4cn[nH]c(=O)c34)cc2)CC1)N(CCO)CCO` [Example 118, 2-(1-(4-((2-(azepan-1-yl)-5-oxo-5,6-dihydropyrimido[4,5-d]pyridazin-4-yl)amino)phenyl)piperidin-4-yl)-N,N-bis(2-hydroxyethyl)acetamide], for which, in test [1], the pIC50 was above 7.30. Besides, in the test with RBL2H3 cells, the inhibition at 1 µM worked out at 87% and the pEC50 is 6.82. For the same molecule, the pIC50 on JAK2 is above 8.00.

As for `CC1CN(c2nc(Nc3ccc(N4CCC(CC(=O)O)CC4)cc3)c3c(=O)[nH]ncc3n2)CC(C)O1` (stereo not drawn) [Example 121, 2-(1-(4-((2-(2,6-dimethylmorpholino)-5-oxo-5,6-dihydropyrimido[4,5-d]pyridazin-4-yl)amino)phenyl)piperidin-4-yl)acetic acid], the pIC50 in test [1] was above 7.30. For the same molecule, in the test on RBL2H3 cells, the inhibition at 1 µM was 98% and the pEC50 was 6.81. In addition, at JAK2, the pIC50 is above 7.30.

With `O=C(O)C[C@H]1CC[C@@H](c2ccc(Nc3nc(N4CCCCCC4)nc4cn[nH]c(=O)c34)cc2)CC1` [Example 123, 2-((1S,4S)-4-(4-((2-(azepan-1-yl)-5-oxo-5,6-dihydropyrimido[4,5-d]pyridazin-4-yl)amino)phenyl)cyclohexyl)acetic acid], the pIC50 in test [1] was above 8.00. In the test on RBL2H3 cells, the inhibition at 1 µM was determined as 90% and the pEC50 is 6.94. In addition, the pIC50 at JAK2 was above 8.00.

In the case of `O=C(O)C1CC1C1CCN(c2ccc(Nc3nc(N4CCCCCC4)nc4cn[nH]c(=O)c34)cc2)CC1` (stereo not drawn) [Example 131, 2-(1-(4-((2-(azepan-1-yl)-5-oxo-5,6-dihydropyrimido[4,5-d]pyridazin-4-yl)amino)phenyl)piperidin-4-yl) cyclopropanecarboxylic acid], the negative logarithm of the IC50 (pIC50) in test [1] was above 8.00. Also, in the test with RBL2H3 cells, the inhibition at 1 µM is 98% and the pEC50 was 7.46. Also, the pIC50 at JAK2 is above 8.00.

In the case of `O=C(O)CCC1CCN(c2ccc(Nc3nc(-c4ccccc4)nc4cn[nH]c(=O)c34)cc2)CC1` [Example 132, 3-(1-(4-((5-oxo-2-phenyl-5,6-dihydropyrimido[4,5-d]pyridazin-4-yl)amino)phenyl)piperidin-4-yl)propanoic acid], the pIC50 in test [1] is above 7.30; at JAK2, above 8.00. The inhibition at 1 µM in the test with RBL2H3 cells was 99%. Also, the negative logarithm of the EC50 (pEC50) in the test with RBL2H3 cells was 7.62.

Regarding `O=C(O)CN1CCCN(c2ccc(Nc3nc(N4CCCCCC4)nc4cn[nH]c(=O)c34)cc2)CC1` [Example 145, 2-(4-(4-((2-(azepan-1-yl)-5-oxo-5,6-dihydropyrimido[4,5-d]pyridazin-4-yl)amino)phenyl)-1,4-diazepan-1-yl)acetic acid], the pIC50 (in test [1]; at JAK2) was above 8.00 in each case. The inhibition at 1 µM with RBL2H3 cells was 52%. The negative-log EC50 (pEC50) in the test on RBL2H3 cells was 7.01.

With `CC(C)(O)C1CCN(c2ccc(Nc3nc(N4CCC(CC#N)CC4)nc4cn[nH]c(=O)c34)cc2)CC1` [Example 146, 2-(1-(4-((4-(4-(2-hydroxypropan-2-yl)piperidin-1-yl)phenyl)amino)-5-oxo-5,6-dihydropyrimido[4,5-d]pyridazin-2-yl)piperidin-4-yl)acetonitrile], in test [1], the negative logarithm of the IC50 (pIC50) is above 8.00. In addition, in the test on RBL2H3 cells, the inhibition at 1 µM stood at 66% and the pEC50 is 7.59. For the same molecule, at JAK2, the negative-log IC50 (pIC50) is above 7.30.

Take `N#CCC1CCN(c2nc(Nc3ccc(N4CCC(CCC(=O)O)CC4)cc3)c3c(=O)[nH]ncc3n2)CC1` [Example 147, 3-(1-(4-((2-(4-(cyanomethyl)piperidin-1-yl)-5-oxo-5,6-dihydropyrimido[4,5-d]pyridazin-4-yl)amino)phenyl)piperidin-4-yl)propanoic acid]: the pIC50 in test [1] is above 8.00. Also, in the test with RBL2H3 cells, the inhibition at 1 µM was determined as 49% and the pEC50 was 6.82. Moreover, the pIC50 on JAK2 is above 7.30.

With `O=c1[nH]ncc2nc(N3CCCCC3)nc(Nc3ccc(OCCN4CCNCC4)cc3)c12` [Example 153, 4-((4-(2-(piperazin-1-yl)ethoxy)phenyl)amino)-2-(piperidin-1-yl)pyrimido[4,5-d]pyridazin-5(6H)-one], in test [1], the negative logarithm of the IC50 (pIC50) is above 7.30. Further, in the test on RBL2H3 cells, the inhibition at 1 µM is 47% and the pEC50 is 6.49. Moreover, the pIC50 on JAK2 is above 7.00.

In the case of `O=C(O)CN1CCCN(c2ccc(Nc3nc(N4CCCCC4)nc4cn[nH]c(=O)c34)cc2)CC1` [Example 154, 2-(4-(4-((5-oxo-2-(piperidin-1-yl)-5,6-dihydropyrimido[4,5-d]pyridazin-4-yl)amino)phenyl)-1,4-diazepan-1-yl)acetic acid], the pIC50 (in test [1]; at JAK2) was above 7.30 throughout. For the same molecule, the inhibition at 1 µM in the test with RBL2H3 cells was 23%. For the same molecule, the pEC50 in the test on RBL2H3 cells was 5.63.

In the case of `CC1CCN(c2nc(Nc3ccc(N4CCC5(CC4)CC5C(=O)O)cc3)c3c(=O)[nH]ncc3n2)CC1` (stereo not drawn) [Example 155, 6-(4-((2-(4-methylpiperidin-1-yl)-5-oxo-5,6-dihydropyrimido[4,5-d]pyridazin-4-yl)amino)phenyl)-6-azaspiro[2.5]octane-1-carboxylic acid], the pIC50 (in test [1]; on JAK2) was above 7.30 each time. For the same molecule, in the test on RBL2H3 cells, the pEC50 was 7.57.

As for `O=C1CN(CCOc2ccc(Nc3nc(N4CCCCCC4)nc4cn[nH]c(=O)c34)cc2)CCN1` [Example 157, 2-(azepan-1-yl)-4-((4-(2-(3-oxopiperazin-1-yl)ethoxy)phenyl)amino) pyrimido[4,5-d]pyridazin-5(6H)-one], the pIC50 in test [1] was above 7.30. Also, in the test on RBL2H3 cells, the inhibition at 1 µM was found to be 70% and the pEC50 is 7.38. The pIC50 at JAK2 was above 7.30.

Turning to `O=C(O)C1CC12CCN(CCOc1ccc(Nc3nc(N4CCCCCC4)nc4cn[nH]c(=O)c34)cc1)CC2` (stereo not drawn) [Example 158, 6-(2-(4-((2-(azepan-1-yl)-5-oxo-5,6-dihydropyrimido[4,5-d]pyridazin-4-yl)amino)phenoxy)ethyl)-6-azaspiro[2.5]octane-1-carboxylic acid], the pIC50 was above 7.30 in test [1] and above 8.00 on JAK2. In the test with RBL2H3 cells, the inhibition at 1 µM amounted to 53%. For the same molecule, in the test on RBL2H3 cells, the pEC50 was 6.79.
